Assay results: PubChem BioAssay (NCI)
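Briefly, cells in 96-well plates were exposed to five compound concentrations for 48 h, and endpoints were estimated by linear interpolation. Definition used: TGI = concentration required for complete inhibition of growth.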

Columns and labels:
Experiment in all cases: NCI tumour cell line growth inhibition, 48 h
[1] = tested on: BT-549 breast
[2] = tested on: SN12C renal
[3] = tested on: RXF 393 renal
[4] = tested on: HOP-92 NSCLC
[5] = tested on: DU-145 prostate
[6] = tested on: OVCAR-4 ovarian
[7] = tested on: IGROV1 ovarian
[8] = tested on: NCI-H23 lung
[9] = tested on: MDA-N
[10] = tested on: HL-60(TB) leukemia
[11] = tested on: RPMI-8226 leukemia
[12] = tested on: SK-MEL-28 melanoma
[13] = tested on: TK-10 renal
[14] = tested on: M14 melanoma
[15] = tested on: HCT-15 colon
[16] = tested on: UO-31 renal
[17] = tested on: SK-MEL-2 melanoma
[18] = tested on: OVCAR-3 ovarian
[19] = tested on: HT29 colon
[20] = tested on: OVCAR-5 ovarian
[21] = tested on: ACHN renal
[22] = tested on: 786-0 renal
[23] = tested on: K-562 leukemia
[24] = tested on: SF-268 CNS
[25] = tested on: UACC-62 melanoma
[26] = tested on: MDA-MB-435
[27] = tested on: PC-3 prostate
[28] = tested on: NCI-H226 lung
[29] = tested on: NCI/ADR-RES ovarian
[30] = tested on: U251 CNS
[31] = tested on: MALME-3M melanoma
[32] = tested on: CAKI-1 renal
[33] = tested on: A498 renal
[34] = tested on: EKVX NSCLC
[35] = tested on: SK-MEL-5 melanoma
[36] = tested on: HOP-62 NSCLC
[37] = tested on: HCT-116 colon
[38] = tested on: MDA-MB-231 breast
[39] = tested on: HCC-2998 colon
[40] = tested on: NCI-H460 lung
[41] = tested on: SR leukemia
[42] = tested on: SF-539 CNS
[43] = tested on: HS 578T breast
[44] = tested on: UACC-257 melanoma
[45] = tested on: KM12 colon
[46] = tested on: MOLT-4 leukemia
[47] = tested on: SF-295 CNS
[48] = tested on: LOX IMVI melanoma
[49] = tested on: MCF7 breast
[50] = tested on: NCI-H522 lung
[51] = tested on: SNB-19 CNS
[52] = tested on: SW-620 colon
[53] = tested on: A549 NSCLC
[54] = tested on: OVCAR-8 ovarian
[55] = tested on: COLO 205 colon
[56] = tested on: SNB-75 CNS
[57] = tested on: CCRF-CEM leukemia
[58] = tested on: T-47D breast
[59] = tested on: SK-OV-3 ovarian

In the case of `CC(C)(C)OC(=O)CN1C(=O)CC1CC(=O)c1ccccc1` (stereo not given), the TGI [1] is reported as 35.5 µM, the TGI [2] is reported as 51.1 µM and the TGI [3] is reported as 43.5 µM. The TGI [4] was over 100 µM, the TGI [5] was 34.2 µM and the TGI [6] was over 100 µM. The TGI [7] was 32.2 µM, the TGI [8] was 36.5 µM and the TGI [9] was 42.2 µM. For the same molecule, the TGI [10] was 47.9 µM, the TGI [11] was 15.3 µM and the TGI [12] was 36.7 µM. It also gave a TGI [13] of 93.2 µM, a TGI [14] of 30.4 µM and a TGI [15] of 37.5 µM. It also gave a TGI [16] of 31.4 µM, a TGI [17] of 32.2 µM and a TGI [18] of 33.5 µM. For the same molecule, the TGI [19] was 37.4 µM, the TGI [20] was 36.8 µM and the TGI [21] was 41.7 µM. It also gave a TGI [22] of 32.9 µM, a TGI [23] of 34.2 µM and a TGI [24] of 37.7 µM. For the same molecule, the TGI [25] was 41.3 µM, the TGI [26] was 41.2 µM and the TGI [27] was 30.9 µM. The TGI [28] was 43.5 µM, the TGI [29] was over 100 µM and the TGI [30] was 29.4 µM. The TGI [31] was 31.9 µM, the TGI [32] was 49.4 µM and the TGI [33] was 64 µM. It also gave a TGI [34] of 35.7 µM, a TGI [35] of 33.1 µM and a TGI [36] of 34.2 µM. It also gave a TGI [37] of 49.7 µM, a TGI [38] of 31.1 µM and a TGI [39] of 63.2 µM. It also gave a TGI [40] of 77.1 µM, a TGI [41] of 19.1 µM and a TGI [42] of 34.9 µM. The TGI [43] was 84.2 µM, the TGI [44] was 35.2 µM and the TGI [45] was 44.4 µM. For the same molecule, the TGI [46] was 25.3 µM, the TGI [47] was 73.8 µM and the TGI [48] was 31.3 µM. For the same molecule, the TGI [49] was 36.1 µM, the TGI [50] was 33.7 µM and the TGI [51] was 41.9 µM. For the same molecule, the TGI [52] was 31.6 µM, the TGI [53] was over 100 µM and the TGI [54] was 32.6 µM. It also gave a TGI [55] of 49.6 µM.

With `O=C(O)C1CCCN(CCc2c[nH]c3ccccc23)C1` (stereo not given) the TGI [1] was over 100 µM, the TGI [2] was over 100 µM and the TGI [3] was over 100 µM. The TGI [4] was over 100 µM, the TGI [5] was over 100 µM and the TGI [6] was over 100 µM. It also gave a TGI [7] of over 100 µM, a TGI [8] of over 100 µM and a TGI [9] of over 100 µM. For the same molecule, the TGI [10] was over 100 µM, the TGI [11] was over 100 µM and the TGI [12] was over 100 µM. It also gave a TGI [13] of over 100 µM, a TGI [14] of over 100 µM and a TGI [15] of over 100 µM. For the same molecule, the TGI [17] was over 100 µM, the TGI [18] was over 100 µM and the TGI [19] was over 100 µM. The TGI [20] was over 100 µM, the TGI [56] was over 100 µM and the TGI [21] was over 100 µM. The TGI [22] was over 100 µM, the TGI [23] was over 100 µM and the TGI [24] was over 100 µM. For the same molecule, the TGI [25] was over 100 µM, the TGI [26] was over 100 µM and the TGI [27] was over 100 µM. It also gave a TGI [28] of over 100 µM, a TGI [29] of over 100 µM and a TGI [30] of over 100 µM. The TGI [31] was over 100 µM, the TGI [57] was over 100 µM and the TGI [32] was over 100 µM. The TGI [33] was over 100 µM, the TGI [34] was over 100 µM and the TGI [36] was over 100 µM. For the same molecule, the TGI [37] was over 100 µM, the TGI [38] was over 100 µM and the TGI [39] was over 100 µM. For the same molecule, the TGI [40] was over 100 µM, the TGI [42] was over 100 µM and the TGI [44] was over 100 µM. The TGI [45] was over 100 µM, the TGI [58] was over 100 µM and the TGI [46] was over 100 µM. For the same molecule, the TGI [47] was over 100 µM, the TGI [48] was over 100 µM and the TGI [49] was over 100 µM. It also gave a TGI [50] of over 100 µM, a TGI [51] of over 100 µM and a TGI [52] of over 100 µM. The TGI [53] was over 100 µM, the TGI [59] was over 100 µM and the TGI [54] was over 100 µM. For the same molecule, the TGI [55] was over 100 µM.
